Source: publication PMC10985088, “Synthesis and biological evaluation of echinomycin analogues as potential colon cancer agent” (Scientific Reports, 2024)

Assays:
[1] = Hepatic microsomal stability assay, human; type: in vitro ADME; conditions: microsomes, 1 μM, 0.2 mg/mL microsomes, 37 °C, 30 min
Method: (§1) Before investigating the in vivo efficacy of 3, its metabolic stability was evaluated by treatment with human or mouse liver microsomes at 37 °C for 30 min, and the remaining analogues were analyzed by LC–MS/MS (Table 3). […] This means that approximately 67% of 3 was unaffected by human liver microsomes.
(§2) Basically, the analysis was performed using methods previously reported. Disappearance of the parent compound over time was measured by using the amount of drug at time zero as a reference. After 5 min of preincubation, 1 mM NADPH (final concentration, the same applies to the following, NADPH( +)) or 0.1 M phosphate buffer (pH 7.4, NADPH(−))) was added to a mixture containing 1 μM of the test compound, 0.2 mg/mL of human or mouse liver microsomes (Sekisui XenoTech LLC (Kansas City, KS)), 1 mM EDTA and 0.1 M phosphate buffer (pH 7.4) and incubated at 37 °C for 30 min by rotation at 60 rpm. An aliquot of 50 μL of the incubation mixture was sampled and added to 250 μL of chilled acetonitrile/internal standard (IS). After centrifuging for 15 min at 3150×g (4 °C), the supernatants were analyzed by LC–MS/MS. Hepatic microsomal stability (mL/min/kg, CLint) was calculated according to the previous report, using 48.8 and 45.4 mg MS protein/g liver and 25.7 and 87.5 g liver/kg body weight as scaling factors for human and mouse, respectively.
(§3) Basically, the analysis was performed using methods previously reported. An LC-MS8060 instrument equipped with a Shimadzu Nexera series LC system (Shimadzu, Kyoto, Japan) was used. All compounds were analyzed in multi-reaction monitoring mode under electron spray ionization conditions. The analytical column used was a […] C18 MGIII (3 μm × 2.0 mmID × 35 mm; OSAKA SODA, Osaka, Japan) at 50 °C. The gradient mobile phase consisted of 0.1% formic acid in water (mobile phase A,) and 0.1% formic acid in acetonitrile (mobile phase B) at a total flow rate of 1 mL/min. The initial mobile phase composition was 10% B, which was held constant for 0.2 min, increased in a linear fashion to 90% B over 1 min, then held constant for 0.8 min, and finally brought back to the initial condition of 10% B over 0.01 min and re-equilibrated for 1 min. The transitions (precursor ion > product ion) of echinomycin, 3 and IS (methyl testosterone) are 1101.45 > 1053.5 (positive), 1083.5 > 523.95 (negative), and 303.1 > 109.1 (positive), respectively.

[2] = tested on: SW620 cells; assay: WST-8 cytotoxicity assay, SW620; conditions: read-out: IC50 SW620; human colon cancer cell, 72 h, mean ± SE (n = 3)
Method: With a range of chromophore analogues in hand, their toxicity to SW620 cells was investigated by WST assays.
Basically, the evaluation was performed using methods previously reported by our group[20],[23]. Cytotoxic activities of compounds against MIA PaCa-2 (American Type Culture Collection), SW620 (European Collection of Authenticated Cell Cultures) were measured by WST-8 assay according to manufacturer’s protocol. Briefly, cells (1 × 10^4 cells/well) in a 96-well plate were cultured in medium (for MIA PaCa-2, D-MEM (Wako, Japan) containing 10% fetal bovine serum (Funakoshi, Japan), 100 units/mL penicillin G and 100 µg/mL streptomycin (Wako, Japan), for SW620, RPMI-1640 (Wako, Japan) containing 10% fetal bovine serum, 100 units/mL penicillin G and 100 µg/mL streptomycin) were cultured at 37 °C for 24 h under 5% CO2 atmosphere. Then, cells were treated with test compounds (final DMSO concentration was 1%) at 37 °C for 72 h under 5% CO2 atmosphere. Then, cells were treated with a solution of Cell Counting Kit-8® (Dojindo, Japan) for 3 h. After that, cell viabilities were determined based on the measurement of absorption at 450 nm of the wells by using TECAN Infinite® M200 microplate reader. The results were expressed as a percentage of the negative control (cells treated with DMSO only), and that value was fixed at 100%.

[3] = Hepatic microsomal stability assay, mouse; type: in vitro ADME; conditions: microsomes, 1 μM, 0.2 mg/mL microsomes, 37 °C, 30 min
Method: as §1, §2, §3

CS[C@H]1SC[C@H]2C(=O)N(C)[C@@H](C(C)C)C(=O)OC[C@@H](NC(=O)c3cnc4ccccc4n3)C(=O)N[C@@H](C)C(=O)N(C)[C@@H]1C(=O)N(C)[C@@H](C(C)C)C(=O)OC[C@@H](NC(=O)c1cnc3ccccc3n1)C(=O)N[C@@H](C)C(=O)N2C [Compound 1, Echinomycin]
CLint scaled ([1]; NADPH(+), read-out: Metabolic stability (CLint) Human NADPH(+)): < 22 mL/min/kg | CLint scaled ([1]; NADPH(−), read-out: Metabolic stability (CLint) Human NADPH(−)): < 22 mL/min/kg | IC50 [2]: 2.5 ± 0.8 nM | CLint scaled ([3]; NADPH(+), read-out: Metabolic stability (CLint) Mouse NADPH(+)): < 69.8 mL/min/kg | CLint scaled ([3]; NADPH(−), read-out: Metabolic stability (CLint) Mouse NADPH(−)): < 69.8 mL/min/kg
